ChEMBL document CHEMBL1131016, “Carbocyclic analogues of the potent cytidine deaminase inhibitor 1-(beta-D-ribofuranosyl)-1,2-dihydropyrimidin-2-one (zebularine)” (J Med Chem, 1998)
Activity calls are given as the source filed them. The calls are words filed in the database; no cut-off is given here.

Legend:
Cytidine deaminase [1] = target: T1, Cytidine deaminase (Homo sapiens, UniProt P32320); test: Inhibitory concentration of mouse or human Cytidine deaminase; No inhibition
Cytidine deaminase [2] = target: T1, Cytidine deaminase; test: Compound was tested for its binding affinity against human cytidine deaminase;16-fold less potent than that of zebularine (16.5 uM)

T1 sequence (P32320 whole entry): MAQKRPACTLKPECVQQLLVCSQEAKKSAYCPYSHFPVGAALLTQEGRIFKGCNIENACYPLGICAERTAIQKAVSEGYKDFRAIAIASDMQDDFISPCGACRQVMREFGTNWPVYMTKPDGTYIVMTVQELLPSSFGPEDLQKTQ

Row | SMILES | inhibition (Cytidine deaminase [1]) | fold less potent than zebularine (Cytidine deaminase [2])
1 | O=c1ncccn1[C@H]1[C@H](O)[C@H](O)C2(CO)C[C@H]12 (single isomer, unassigned) | inactive | 
2 | O=c1ncccn1C1CC(CO)[C@@H](O)[C@H]1O (some centres not stated) |  | 16
